Test results taken from patent publication US20240124456A1, “AZA-ERGOLINE DERIVATIVE AND PREPARATION METHOD THEREFOR AND APPLICATION THEREOF” (SHANGHAITECH UNIVERSITY, priority 2021, published 2024).
Read-outs that look alike come from different tables or passages of the source.

Columns and labels:
Assay type in all cases: in vivo
[1] = Brain permeability in C57 male mice (plasma and brain tissue concentration); settings: mouse; for Kp at 0.5 h / Kp at 2 h: brain/plasma; for Kp at 0.5 h: read-out: Brain/blood concentration ratio at 0.5 h; for Kp at 2 h: read-out: Brain/blood concentration ratio at 2.0 h
Description: • 2. Test of the brain permeability of compound (−)-I-10 administered to C57 male mice by single intragastric administration, intraperitoneal injection and intravenous injection
Using the same method as the pharmacokinetic experiment, 0.030 mL of blood was taken from each animal through the orbit at 0.5 and 2.0 hours, respectively, and anticoagulated with EDTA-K2. Blood samples were placed on ice after collection, and the plasma was separated by centrifugation within 30 minutes (centrifugation conditions: 5000 rpm, 10 minutes, 4° C.) and stored at −80° C. until analysis. After the animal was euthanized by bloodletting, the brain tissue samples were taken, homogenized with 50% methanol according to the body weight of 1:3 (m/v=1:3), and stored at −80° C. before homogenate analysis. The drug concentrations in plasma and brain tissue were analyzed by LC/MS/MS and compared.

[2] = tested on: C57B6 male mice; test: Open field athletic ability test, MK801-induced hyperkinesia; settings: for 45 minutes moving distance: n=8
Description: Experimental method: The experimental animals were C57B6 male mice, n=8 in each group. This model used C57B6 mice as experimental animals. The behavioral representation of hyperkinesia in open field environment in mice was induced by acute injection of NMDA antagonist MK801 and modeled to test the inhibitory effect of different compounds on hyperkinesia phenotype induced by MK801. All mouse behavior experiments were carried out during the light period of the mice, and the whole experiment was recorded by the camera and automatic tracking and data statistics were carried out by behavioral tracking software. The compound was administered by intraperitoneal injection. Immediately after the injection, the mice entered the open field and their movement trajectories began to record. After 30 minutes, the mice received 0.2 mg/kg of MK801 by intraperitoneal injection and returned to the open field immediately after administration and the movement trajectories were further recorded for 120 min. The accumulative moving distance of the mice was counted at a data sampling point every five minutes. Data statistics were carried out using Student-t-test, p<0.05 was *, p<0.01 was **, p<0.001 was ***, p<0.0001 was ****. The total moving distance of the mice in 0-45 minutes under the combined action of different doses of (−)-I-10 and MK801 (0.2 mg/kg) is shown in Table 7.

[3] = tested on: C57B6 male mice; test: Tail suspension experiment after 5 h restraint (depression-like behavior); settings: for Immobility time, tail suspension experiment: restraint for five hours
Description: (§1) The experimental animals were C57B6 male mice, n=8 in each group. Firstly, the C57B6 mice were induced to develop depression-related behavioral representations by restraining the mice for 5 hours, and then the effects of the compounds on their “depression-like” behaviors were determined by tail suspension and forced swimming experiments. The specific experimental procedure was as follows. First, the mice were restrained using a mouse fixator for tail vein injection. During the restraint process, all behavioral abilities of the mice were restricted under the condition of ensuring minimal pain to the mice. The mice were administered intraperitoneally once before and after restraint, respectively. After the restraint, the mice returned to the cage to recover for 30 minutes. After the 30 minutes, the mice in different groups were subjected to tail suspension or forced swimming to detect their “depression-like” behavior, respectively.
Tail suspension experiment: the tip of the tail of the mouse was fixed on the suspension rod of the iron stand by adhesive tape, and the mouse remained in the hanging position for 6 minutes. The first 2 minutes was the adaptation period, and no data collection was performed, and the time of the intermittent immobility behavior of the mouse was recorded in the next 4 minutes. The duration of this immobility state was used to measure the degree of behavioral despair in the mouse. Data statistics were carried out using Student-t-test, p<0.05 was *, p<0.01 was **, p<0.001 was ***, p<0.0001 was ****.

[4] = tested on: C57B6 male mice; test: Forced swimming experiment after 5 h restraint (depression-like behavior); settings: restraint for five hours
Description: as §1
Forced swimming experiment: the mouse was placed in a 5 L glass beaker filled with water, the water surface height was 15 cm, and the mouse needed to swim continuously in the beaker for 6 minutes. The first two minutes was the adaptation period and no data collection was performed. The time of the intermittent immobility behavior of the mouse was recorded in the next four minutes, and the immobility behavior of the mouse was defined as: the mouse float passively on the surface of the water without movement, with only small local movements required to maintain afloat. The duration of this immobility state was used to measure the degree of behavioral despair in the mouse. Data statistics were carried out using Student-t-test, p<0.05 was *, p<0.01 was **, p<0.001 was ***, p<0.0001 was ****. The results of statistical data of restrained and unrestrained mouse tail suspension experiment and forced swimming experiment are shown in Table 8.

[5] = ip, intraperitoneal injection 1 mg/kg

CN(C)C(=O)N[C@H]1CC[C@H](CCN2CCN3c4cccc5[nH]cc(c45)C[C@H]3C2)CC1 [(−)-I-10]
concentration at 0.5 h ([1]; brain, intravenous injection 1 mg/kg, read-out: Drug concentration at 0.5 h in brain): 219 ± 21 ng/mL
concentration at 2 h ([1]; brain, intravenous injection 1 mg/kg, read-out: Drug concentration at 2.0 h in brain): 77 ± 7 ng/mL
concentration at 0.5 h ([1]; brain, ip, intraperitoneal injection 1 mg/kg, read-out: Drug concentration at 0.5 h in brain): 193 ± 13 ng/mL
concentration at 2 h ([1]; brain, ip, intraperitoneal injection 1 mg/kg, read-out: Drug concentration at 2.0 h in brain): 42.7 ± 4 ng/mL
concentration at 0.5 h ([1]; brain, oral administration 5 mg/kg, read-out: Drug concentration at 0.5 h in brain): 346 ± 217 ng/mL
concentration at 2 h ([1]; brain, oral administration 5 mg/kg, read-out: Drug concentration at 2.0 h in brain): 169 ± 23 ng/mL
Kp at 0.5 h ([1]; intravenous injection 1 mg/kg): 1.65
Kp at 2 h ([1]; intravenous injection 1 mg/kg): 3.09
Kp at 0.5 h [1, 5]: 1.56
Kp at 2 h [1, 5]: 3.1
Kp at 0.5 h ([1]; oral administration 5 mg/kg): 1.5
Kp at 2 h ([1]; oral administration 5 mg/kg): 1.78
concentration at 0.5 h ([1]; plasma, intravenous injection 1 mg/kg, read-out: Drug concentration at 0.5 h in plasma): 133 ± 19 ng/mL
concentration at 2 h ([1]; plasma, intravenous injection 1 mg/kg, read-out: Drug concentration at 2.0 h in plasma): 24.9 ± 5 ng/mL
concentration at 0.5 h ([1]; plasma, ip, intraperitoneal injection 1 mg/kg, read-out: Drug concentration at 0.5 h in plasma): 124 ± 15 ng/mL
concentration at 2 h ([1]; plasma, ip, intraperitoneal injection 1 mg/kg, read-out: Drug concentration at 2.0 h in plasma): 13.8 ± 2.7 ng/mL
concentration at 0.5 h ([1]; plasma, oral administration 5 mg/kg, read-out: Drug concentration at 0.5 h in plasma): 231 ± 153 ng/mL
concentration at 2 h ([1]; plasma, oral administration 5 mg/kg, read-out: Drug concentration at 2.0 h in plasma): 95 ± 16 ng/mL
inhibition of the improvement of athletic ability induced by MK801 (in words) ([2]; 0.4/0.1/0.025 mg/kg): significantly inhibit
45 minutes moving distance ([2]; MK801 (0.2 mg/kg) + 0.00625 mg/kg intraperitoneal): 11626 cm
45 minutes moving distance ([2]; MK801 (0.2 mg/kg) + 0.025 mg/kg intraperitoneal): 8643 cm
45 minutes moving distance ([2]; MK801 (0.2 mg/kg) + 0.1 mg/kg intraperitoneal): 3833 cm
45 minutes moving distance ([2]; MK801 (0.2 mg/kg) + 0.4 mg/kg intraperitoneal): 2644 cm
inhibition of restraint-induced depression-like behavior (in words) ([3]; 0.4 mg/kg and 0.1 mg/kg, tail suspension and forced swimming): significantly inhibit
Immobility time, tail suspension experiment ([3]; 0.00625 mg/kg intraperitoneal): 132.6 s
Immobility time, tail suspension experiment ([3]; 0.025 mg/kg intraperitoneal): 101.8 s
Immobility time, tail suspension experiment ([3]; 0.1 mg/kg intraperitoneal): 90.31 s
Immobility time, tail suspension experiment ([3]; 0.4 mg/kg intraperitoneal): 72.66 s
Immobility time, forced swimming experiment ([4]; 0.00625 mg/kg intraperitoneal): 76.09 s
Immobility time, forced swimming experiment ([4]; 0.025 mg/kg intraperitoneal): 56.59 s
Immobility time, forced swimming experiment ([4]; 0.1 mg/kg intraperitoneal): 42.76 s
Immobility time, forced swimming experiment ([4]; 0.4 mg/kg intraperitoneal): 22.40 s
